Assay results from US11542295B2, “Use of 20-hydroxyecdysone and the derivatives thereof in the treatment of myopathies” (BIOPHYTIS, priority 2017, dated 2023).

Experiments:
[1] = system: C57BL10 mdx mice (mouse model of Duchenne muscular dystrophy); assay: Exertion tolerance test (forced motorised treadmill, maximum distance travelled); type: in vivo; conditions: 50 mg/kg*day per os, two months of treatment
Protocol: Twelve-week-old […] gene pool (wild mice referred to as “C57” in the figures) and […] mdx (mouse model of Duchenne muscular dystrophy, referred to as “mdx” in the figures) male mice, produced at Charles Rivers, were used. Two groups of mdx were chronically exposed per os either to BIO101 (number of mice n=9) or to BIO103 (number of mice n=9) at a dose of 50 mg/kg*day. A group of C57 mice (number of mice n=5) and a group of mdx mice (number of mice n=15) received the vehicle, i.e. no treatment. The animals of all of the groups were tested for their functional capacity (exertion tolerance test) after two months of treatment. The exertion tolerance test consists of measuring the maximum distance travelled (in-toto activity; FIGS. 1A and 1B). Furthermore, measurements of the maximum absolute isometric strength of the tibialis anterior muscle (in-situ activity; FIGS. 2A and 2B) were made after two months of treatment. The two-month oral treatment consists of force-feeding for five days a week and in drinking water two days a week. The exertion tolerance test is a forced motored treadmill exercise. It is a non-invasive method for assessing in-toto skeletal function. It is gold standard method in the field (Ferry et al. 1992, 1993; Hadj-Said et al. 2012). The acclimatisation period of the animals is at least 48 hours prior to the session during which the maximum running distance is measured. During the test, the mouse is placed in a running corridor on a motorised treadmill which enables a exercise controlled by the tester in the intensity and duration thereof. The treadmill ends with a horizontal grid which administers an electric shock (0.4 mA) if the animal is in contact for more than one second with the grid. The running session starts with a 2-minute warm-up period during which the speed is increased from 0 to 20 cm/s. Subsequently, the running speed is increased by 5 cm/s every 10 minutes up to the limit of the peak capacities of the mouse. When it is subjected to 5 shocks in less than 10 seconds, the test is stopped. The distance travelled is noted.

collagen I = assay: Collagen I protein expression in gastrocnemius muscle (Western Blot); type: in vivo, mouse; conditions: 50 mg/kg*day, two months, p<0.01
Protocol: Twelve-week-old C57BL10 gene pool (wild mice referred to as “C57” in the figures) and C57BL10 mdx (mouse model of Duchenne muscular dystrophy, referred to as “mdx” in the figures) male mice, produced at Charles Rivers, were used. Two groups of mdx were chronically exposed per os either to BIO101 (number of mice n=9) or to BIO103 (number of mice n=9) at a dose of 50 mg/kg*day. A group of C57 mice (number of mice n=5) and a group of mdx mice (number of mice n=15) received the vehicle, i.e. no treatment. The animals of all of the groups were tested for their functional capacity (exertion tolerance test) after two months of treatment. The exertion tolerance test consists of measuring the maximum distance travelled (in-toto activity; FIGS. 1A and 1B). Furthermore, measurements of the maximum absolute isometric strength of the tibialis anterior muscle (in-situ activity; FIGS. 2A and 2B) were made after two months of treatment.
Alongside the observations made on the tibialis anterior muscle, an assessment of a marker of muscle fibrosis is carried out on the gastrocnemius muscle. The muscle is dissociated with moderate stirring for 16 h at 4° C. in RIPA lysis buffer. […] Collagen I is detected by Western Blot, detected by chemiluminescence then quantified by densitometry after normalisation with reference to GAPDH detection. […]

[2] = system: tibialis anterior muscle of C57BL10 mdx mice; assay: Skeletal muscle vascularisation (number of vessels per muscle fibre, anti-laminin / anti-CD31 labelling); type: in vivo, mouse; conditions: 50 mg/kg*day per os, two months of daily exposure
Protocol: A quantitative vascularisation study was carried out on sections of tibialis anterior muscle (abbreviated as TA) of healthy C57 mice as well as on mdx mice treated with the vehicle and mdx mice treated with BIO101 or BIO103. Double immunofluorescence labelling is carried out, anti-laminin labelling with the function of identifying the basal membrane of the muscle fibres and anti-CD31 labelling having the function of identifying the vessel. The number of vessels per muscle fibre is quantified. The mdx animals received daily, per os, either the vehicle or BIO101 (50 mg/kg*day) or BIO103 (50 mg/kg*day).

[3] = system: CTGF (connective tissue growth factor); assay: Heart mRNA expression of fibrosis marker CTGF (semi-quantitative PCR); type: in vivo, mouse; conditions: mdx mice, 50 mg/kg*day, two months; p=0,0506
Protocol: Twelve-week-old C57BL10 gene pool (wild mice referred to as “C57” in the figures) and C57BL10 mdx (mouse model of Duchenne muscular dystrophy, referred to as “mdx” in the figures) male mice, produced at Charles Rivers, were used. Two groups of mdx were chronically exposed per os either to BIO101 (number of mice n=9) or to BIO103 (number of mice n=9) at a dose of 50 mg/kg*day. A group of C57 mice (number of mice n=5) and a group of mdx mice (number of mice n=15) received the vehicle, i.e. no treatment. The animals of all of the groups were tested for their functional capacity (exertion tolerance test) after two months of treatment. […]
An assessment of markers of fibrosis and cardiac hypertrophy is carried out at the end of the protocol, i.e. after two months of treatment. […] The extract RNA is quantified by spectrophotometry then the quality thereof is verified and validated with the Experion RNA StdSens Analysis Kit (Bio-Rad). […] Finally, semi-quantitative PCR analysis was carried out using SYBR® Green (Roche), a DNA intercalating agent and a LightCycler® 480 Real Time PCR (Roche) apparatus on 384-well plates. The molecular markers measured are as follows: • CTGF and collagen I: connective tissue growth factor (CTGF) is associated with healing and with many pathological fibrotic processes including DMD (Brigstock 2010; Song Y. 2017). […]

ERK1/2 = ERK1/2 phosphorylation in human DMD myocytes (Western Blot); type: cell-based; conditions: 10 μM, 10 minutes to 24 hours, vs untreated control
Protocol: Human DMD skeletal muscle cells (KM571DMD1OFL Cl1) were differentiated for 5 days then optionally incubated with BIO101 at 10 μM for periods of between 10 minutes and 24 hours.
A densitometric analysis of results of at least 6 independent Western Blot experiments described the effects of BIO101 on the phosphorylation of AKT (FIG. 8A) and ERK1/2 (FIG. 8B) is shown, *p<0.05 versus the untreated control.

| Compound | improvement of overall physical performances (in-toto activity) [1] [fold] | improvement of the distance travelled compared to untreated mdx animals (vehicle) [1] | protein expression of collagen I in gastrocnemius muscle compared to untreated mdx mice (collagen I) | increase of the number of vessels per muscle fibre compared to untreated mdx animals (vehicle) [2] [%] | genic expression of CTGF in heart compared to control mdx animals [3] | p-ERK1/2 (phosphorylation of ERK1/2) (ERK1/2) |
| --- | --- | --- | --- | --- | --- | --- |
| CCSCC(=O)[C@H]1CC[C@@]2(O)C3=CC(=O)[C@@H]4C[C@@H](O)[C@@H](O)C[C@]4(C)C3CC[C@]12C (stereo partly drawn) [BIO103, (2S,3R,5R,10R,13R,14S,17S)-17-(2-ethylsulfanylacetyl)-2,3,14-trihydroxy-10,13-dimethyl-2,3,4,5,9,11,12,15,16,17-decahydro-1H-cyclopenta[a]phenanthren-6-one] | 1.7 | +67% | significant decrease | 28.2 | – | – |
| CC(C)(O)CC[C@@H](O)[C@](C)(O)[C@H]1CC[C@@]2(O)C3=CC(=O)[C@@H]4C[C@@H](O)[C@@H](O)C[C@]4(C)[C@H]3CC[C@]12C [BIO101, 20-hydroxyecdysone] | 2.4 | +136% | – | 14.1 | prevents | significant increase |
